US20240239861A1, “GLUCAGON-RECEPTOR SELECTIVE POLYPEPTIDES AND METHODS OF USE THEREOF” (i2O Therapeutics, Inc., priority 2016, published 2024)
Where two headings read alike, the source gives them in different places. *1 amine or outer side, *2 acyl side, *3 side chain or, on linkers, in order; H or OH if unused. Where a SMILES comes first, the peptide text is derived from it. Side-chain parts run from the residue outwards. [ ]: non-standard residue; d: D form. The star is where a group is joined. γGlu = O=C(O)[C@H](CCC(=O)[*:2])N[*:1]; Palmitoyl = CCCCCCCCCCCCCCCC(=O)*; Aib = CC(C)(N)C(=O)O

Tests used:
human GLP-1R = human GLP-1R (Homo sapiens, UniProt P43220); experiment: Peptide-receptor mediated cAMP accumulation (LANCE Ultra cAMP) in CHO-K1 cells transfected with human GLP-1R; type: cell-based
in vivo = settings: male, rat
human GCGR = human GCGR (Homo sapiens, UniProt P47871); experiment: Peptide-receptor mediated cAMP accumulation (LANCE Ultra cAMP) in CHO-K1 cells transfected with human GCGR; type: cell-based
[1] = hGLP1 pEC50 (cAMP mean (n = 3): 11 point curve starting at 1 nM, Table 3)

Chain of human GLP-1R (P43220 24-463): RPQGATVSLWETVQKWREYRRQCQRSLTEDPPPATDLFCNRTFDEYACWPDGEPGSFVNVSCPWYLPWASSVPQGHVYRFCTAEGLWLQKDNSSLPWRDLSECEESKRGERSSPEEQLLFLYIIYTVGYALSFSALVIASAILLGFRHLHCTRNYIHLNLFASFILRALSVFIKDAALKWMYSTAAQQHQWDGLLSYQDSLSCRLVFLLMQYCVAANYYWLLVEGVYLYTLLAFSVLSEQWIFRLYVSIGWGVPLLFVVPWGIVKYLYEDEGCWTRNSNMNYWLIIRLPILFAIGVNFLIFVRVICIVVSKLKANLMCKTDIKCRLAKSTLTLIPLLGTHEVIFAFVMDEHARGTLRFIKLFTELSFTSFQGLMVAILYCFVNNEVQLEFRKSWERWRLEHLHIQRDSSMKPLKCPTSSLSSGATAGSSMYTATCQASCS
Chain of human GCGR (P47871 26-477): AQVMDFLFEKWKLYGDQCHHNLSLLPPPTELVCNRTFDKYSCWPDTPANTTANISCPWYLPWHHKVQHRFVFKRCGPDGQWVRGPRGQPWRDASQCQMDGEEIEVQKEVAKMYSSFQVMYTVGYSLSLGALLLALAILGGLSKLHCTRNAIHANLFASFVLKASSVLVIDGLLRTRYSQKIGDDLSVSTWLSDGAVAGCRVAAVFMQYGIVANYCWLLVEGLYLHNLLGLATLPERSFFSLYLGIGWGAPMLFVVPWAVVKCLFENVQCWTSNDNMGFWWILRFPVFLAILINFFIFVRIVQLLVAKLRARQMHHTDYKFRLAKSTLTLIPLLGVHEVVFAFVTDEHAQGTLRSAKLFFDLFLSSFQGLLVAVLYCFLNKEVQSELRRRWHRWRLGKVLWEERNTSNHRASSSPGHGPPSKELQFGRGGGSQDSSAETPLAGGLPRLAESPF

clearance (in vivo) [mL/min/kg] | EC50 (human GLP-1R; Table 7, GLP-1R, read-out: GLP-1R pEC50 (converted)) [nM] | EC50 (human GCGR; read-out: GluR pEC50 (converted)) [nM] | SMILES | EC50 (human GLP-1R; [1]) [nM] | EC50 (human GCGR; Table 3) [nM]
15 | – | – | CC(C)C[C@H](NC(=O)[C@H](Cc1ccc(O)cc1)NC(=O)[C@H](CCCCN)NC(=O)[C@H](CO)NC(=O)[C@H](Cc1ccc(O)cc1)NC(=O)[C@H](CC(=O)O)NC(=O)[C@H](CO)NC(=O)[C@@H](NC(=O)[C@H](Cc1ccccc1)NC(=O)[C@@H](NC(=O)CNC(=O)[C@H](Cc1c[nH]cn1)NC(=O)[C@H](CO)NC(=O)[C@@H](N)Cc1ccc(O)cc1)[C@@H](C)O)[C@@H](C)O)C(=O)N[C@@H](CC(=O)O)C(=O)NC(C)(C)C(=O)N[C@@H](CCCCN)C(=O)N[C@@H](CCCNC(=N)N)C(=O)N[C@@H](C)C(=O)N[C@@H](CCC(N)=O)C(=O)N[C@@H](CCC(=O)O)C(=O)N[C@@H](Cc1ccccc1)C(=O)N[C@H](C(=O)NC(C)(C)C(=O)N[C@@H](Cc1c[nH]c2ccccc12)C(=O)N[C@@H](CC(C)C)C(=O)N[C@@H](CCC(=O)O)C(=O)N[C@@H](CC(=O)O)C(=O)N[C@@H](CCC(=O)O)C(=O)N1CCC[C@H]1C(=O)N[C@@H](CO)C(=O)N[C@@H](CO)C(=O)NCC(=O)N[C@@H](CCCCN)C(=O)N1CCC[C@H]1C(=O)N1CCC[C@H]1C(=O)N1CCC[C@H]1C(=O)N[C@@H](CO)C(=O)O)C(C)C [Compound A20] (H-YSHGTFTSDYSKYLD[Aib]KRAQEFV[Aib]WLEDEPSSGKPPPS-OH; N-terminus assumed) | > 1 | –
24 | – | – | CC(C)C[C@H](NC(=O)[C@H](Cc1ccc(O)cc1)NC(=O)[C@H](CCCCN)NC(=O)[C@H](CO)NC(=O)[C@H](Cc1ccc(O)cc1)NC(=O)[C@H](CC(=O)O)NC(=O)[C@H](CO)NC(=O)[C@@H](NC(=O)[C@H](Cc1ccccc1)NC(=O)[C@@H](NC(=O)CNC(=O)[C@H](Cc1c[nH]cn1)NC(=O)[C@H](CO)NC(=O)[C@@H](N)Cc1ccc(O)cc1)[C@@H](C)O)[C@@H](C)O)C(=O)N[C@@H](CC(=O)O)C(=O)NC(C)(C)C(=O)N[C@@H](CCCCN)C(=O)N[C@@H](CCCNC(=N)N)C(=O)N[C@@H](C)C(=O)N[C@@H](CCC(N)=O)C(=O)N[C@@H](CCC(=O)O)C(=O)N[C@@H](Cc1ccccc1)C(=O)N[C@H](C(=O)NC(C)(C)C(=O)N[C@@H](Cc1c[nH]c2ccccc12)C(=O)N[C@@H](CC(C)C)C(=O)N[C@@H](CCC(=O)O)C(=O)N[C@@H](CC(=O)O)C(=O)N[C@@H](CCC(=O)O)C(=O)N1CCC[C@H]1C(=O)N[C@@H](CO)C(=O)N[C@@H](CO)C(=O)N[C@@H](CCCCN)C(=O)N[C@@H](CCC(=O)O)C(=O)N1CCC[C@H]1C(=O)N1CCC[C@H]1C(=O)N1CCC[C@H]1C(=O)N[C@@H](CO)C(=O)O)C(C)C [Compound A54] (H-YSHGTFTSDYSKYLD[Aib]KRAQEFV[Aib]WLEDEPSSKEPPPS-OH; N-terminus assumed) | > 1 | –
39.9 | – | – | CC(C)C[C@H](NC(=O)[C@H](Cc1ccc(O)cc1)NC(=O)[C@H](CCCCN)NC(=O)[C@H](CO)NC(=O)[C@H](Cc1ccc(O)cc1)NC(=O)[C@H](CC(=O)O)NC(=O)[C@H](CO)NC(=O)[C@@H](NC(=O)[C@H](Cc1ccccc1)NC(=O)[C@@H](NC(=O)CNC(=O)[C@H](Cc1c[nH]cn1)NC(=O)[C@H](CO)NC(=O)[C@@H](N)Cc1ccc(O)cc1)[C@@H](C)O)[C@@H](C)O)C(=O)N[C@@H](CC(=O)O)C(=O)NC(C)(C)C(=O)N[C@@H](CCCCN)C(=O)N[C@@H](CCCNC(=N)N)C(=O)N[C@@H](C)C(=O)N[C@@H](CCC(N)=O)C(=O)N[C@@H](CCC(=O)O)C(=O)N[C@@H](Cc1ccccc1)C(=O)N[C@H](C(=O)NC(C)(C)C(=O)N[C@@H](Cc1c[nH]c2ccccc12)C(=O)N[C@@H](CC(C)C)C(=O)N[C@@H](CCC(=O)O)C(=O)N[C@@H](CC(=O)O)C(=O)N[C@@H](CCC(=O)O)C(=O)N1CCC[C@H]1C(=O)N[C@@H](CCCCN)C(=O)N[C@@H](CO)C(=O)N[C@@H](CCCCN)C(=O)N[C@@H](C)C(=O)N1CCC[C@H]1C(=O)N1CCC[C@H]1C(=O)N1CCC[C@H]1C(=O)N[C@@H](CO)C(=O)O)C(C)C [Compound A56] (H-YSHGTFTSDYSKYLD[Aib]KRAQEFV[Aib]WLEDEPKSKAPPPS-OH; N-terminus assumed) | > 1 | –
– | > 1000 | 0.0316 | CCCCCCCCCCCCCCCC(=O)N[C@@H](CCC(=O)NCCCC[C@H](NC(=O)[C@H](CO)NC(=O)[C@H](CO)NC(=O)[C@@H]1CCCN1C(=O)[C@H](CCC(=O)O)NC(=O)[C@H](CC(=O)O)NC(=O)[C@H](CCC(=O)O)NC(=O)[C@H](CC(C)C)NC(=O)[C@H](Cc1c[nH]c2ccccc12)NC(=O)C(C)(C)NC(=O)[C@@H](NC(=O)[C@H](Cc1ccccc1)NC(=O)[C@H](CCC(=O)O)NC(=O)[C@H](CCC(N)=O)NC(=O)[C@H](C)NC(=O)[C@H](CCCNC(=N)N)NC(=O)[C@H](CCCCN)NC(=O)C(C)(C)NC(=O)[C@H](CC(=O)O)NC(=O)[C@H](CC(C)C)NC(=O)[C@H](Cc1ccc(O)cc1)NC(=O)[C@H](CCCCN)NC(=O)[C@H](CO)NC(=O)[C@H](Cc1ccc(O)cc1)NC(=O)[C@H](CC(=O)O)NC(=O)[C@H](CO)NC(=O)[C@@H](NC(=O)[C@H](Cc1ccccc1)NC(=O)[C@@H](NC(=O)CNC(=O)[C@H](CCC(N)=O)NC(=O)[C@H](CO)NC(=O)[C@@H](N)Cc1c[nH]c2ccccc12)[C@@H](C)O)[C@@H](C)O)C(C)C)C(=O)N[C@@H](C)C(=O)N1CCC[C@H]1C(=O)N1CCC[C@H]1C(=O)N1CCC[C@H]1C(=O)N[C@@H](CO)C(=O)O)C(=O)O [Compound B17] (H-WSQGTFTSDYSKYLD[Aib]KRAQEFV[Aib]WLEDEPSSK([γGlu-Palmitoyl])APPPS-OH) | – | –
– | – | – | CC(C)C[C@H](NC(=O)[C@H](Cc1c[nH]c2ccccc12)NC(=O)[C@H](CCCCN)NC(=O)[C@H](CO)NC(=O)[C@H](Cc1c[nH]cn1)NC(=O)[C@H](CC(=O)O)NC(=O)[C@H](CO)NC(=O)[C@@H](NC(=O)[C@H](Cc1ccccc1)NC(=O)[C@@H](NC(=O)CNC(=O)[C@H](Cc1c[nH]cn1)NC(=O)[C@H](CO)NC(=O)[C@@H](N)Cc1ccc(O)cc1)[C@@H](C)O)[C@@H](C)O)C(=O)N[C@@H](CC(=O)O)C(=O)N[C@@H](CO)C(=O)N[C@@H](C)C(=O)N[C@@H](CCCNC(=N)N)C(=O)N[C@@H](C)C(=O)N[C@@H](CCC(N)=O)C(=O)N[C@@H](CCC(=O)O)C(=O)N[C@@H](Cc1ccccc1)C(=O)N[C@H](C(=O)N[C@@H](CCCCN)C(=O)N[C@@H](Cc1c[nH]c2ccccc12)C(=O)N[C@@H](CC(C)C)C(=O)N[C@@H](CCC(=O)O)C(=O)N[C@@H](CC(=O)O)C(=O)N[C@@H](CCC(=O)O)C(=O)N1CCC[C@H]1C(=O)N[C@@H](CO)C(=O)N[C@@H](CO)C(=O)NCC(=O)N[C@@H](C)C(=O)N1CCC[C@H]1C(=O)N1CCC[C@H]1C(=O)N1CCC[C@H]1C(=O)N[C@@H](CO)C(=O)O)C(C)C [Compound A40] (H-YSHGTFTSDHSKWLDSARAQEFVKWLEDEPSSGAPPPS-OH; N-terminus assumed) | > 1 | 0.0794

SMILES | clearance (in vivo) [mL/min/kg] | EC50 (human GLP-1R; Table 7, GLP-1R, read-out: GLP-1R pEC50 (converted)) [nM] | EC50 (human GCGR; read-out: GluR pEC50 (converted)) [nM] | EC50 (human GLP-1R; [1]) [nM] | EC50 (human GCGR; Table 3) [nM]
CC[C@H](C)[C@H](NC(=O)[C@H](CC(=O)O)NC(=O)[C@H](CC(C)C)NC(=O)[C@H](Cc1ccc(O)cc1)NC(=O)[C@H](CCCCN)NC(=O)[C@H](CO)NC(=O)[C@H](Cc1ccc(O)cc1)NC(=O)[C@H](CC(=O)O)NC(=O)[C@H](CO)NC(=O)[C@@H](NC(=O)[C@H](Cc1ccccc1)NC(=O)[C@@H](NC(=O)CNC(=O)[C@H](Cc1c[nH]cn1)NC(=O)[C@H](CO)NC(=O)[C@@H](N)Cc1ccc(O)cc1)[C@@H](C)O)[C@@H](C)O)C(=O)N[C@@H](CCCCN)C(=O)N[C@@H](CCCNC(=N)N)C(=O)N[C@@H](C)C(=O)N[C@@H](CCC(N)=O)C(=O)N[C@@H](CCC(=O)O)C(=O)N[C@@H](Cc1ccccc1)C(=O)N[C@H](C(=O)NC(C)(C)C(=O)N[C@@H](Cc1c[nH]c2ccccc12)C(=O)N[C@@H](CC(C)C)C(=O)N[C@@H](CCC(=O)O)C(=O)N[C@@H](CC(=O)O)C(=O)N[C@@H](CCC(=O)O)C(=O)N1CCC[C@H]1C(=O)N[C@@H](CO)C(=O)N[C@@H](CO)C(=O)NCC(=O)N[C@@H](C)C(=O)N1CCC[C@H]1C(=O)N1CCC[C@H]1C(=O)N1CCC[C@H]1C(=O)N[C@@H](CO)C(=O)O)C(C)C [Compound A52] (H-YSHGTFTSDYSKYLDIKRAQEFV[Aib]WLEDEPSSGAPPPS-OH) | 29 | – | – | > 1 | –
CC(C)C[C@H](NC(=O)[C@H](Cc1ccc(O)cc1)NC(=O)[C@H](CCCCN)NC(=O)[C@H](CO)NC(=O)[C@H](Cc1ccc(O)cc1)NC(=O)[C@H](CC(=O)O)NC(=O)[C@H](CO)NC(=O)[C@@H](NC(=O)[C@H](Cc1ccccc1)NC(=O)[C@@H](NC(=O)CNC(=O)[C@H](Cc1c[nH]cn1)NC(=O)[C@H](CO)NC(=O)[C@@H](N)Cc1ccc(O)cc1)[C@@H](C)O)[C@@H](C)O)C(=O)N[C@@H](CC(=O)O)C(=O)NC(C)(C)C(=O)N[C@@H](CCCCN)C(=O)N[C@@H](CCCNC(=N)N)C(=O)N[C@@H](C)C(=O)N[C@@H](CCC(N)=O)C(=O)N[C@@H](CCC(=O)O)C(=O)N[C@@H](Cc1ccccc1)C(=O)N[C@H](C(=O)NC(C)(C)C(=O)N[C@@H](Cc1c[nH]c2ccccc12)C(=O)N[C@@H](CC(C)C)C(=O)N[C@@H](CCC(=O)O)C(=O)N[C@@H](CC(=O)O)C(=O)N[C@@H](CCC(=O)O)C(=O)N1CCC[C@H]1C(=O)N[C@@H](CO)C(=O)N[C@@H](CO)C(=O)NCC(=O)N[C@@H](C)C(=O)N1CCC[C@H]1C(=O)N1CCC[C@H]1C(=O)N1CCC[C@H]1C(=O)N[C@@H](CO)C(N)=O)C(C)C [Compound A8] (H-YSHGTFTSDYSKYLD[Aib]KRAQEFV[Aib]WLEDEPSSGAPPPS-NH2; N-terminus assumed) | 17 | – | – | > 1 | –
